Structures are written as SMILES. Entries after “also recorded” stand apart in the source; their conditions may differ.

For data set [1], the system named is MCF-7 human breast cancer cells implanted into nude mice. Kind of data set: Microtubule dynamics compared to de novo DNA synthesis (cell proliferation) in MCF-7 tumors. The note with it: varying doses of paclitaxel; 2H2O for 24 hours (FIG. 5B). Type of data set: in vivo. The source says:
(§1) Microtubule dynamics were expressed as (^2H enrichment in polymer)/(^2H enrichment in dimer). Inhibition of de novo DNA synthesis was quantified as the reduction in ^2H label incorporation into tumor cell DNA. […]
(§2) Various factors can interfere with the actions of paclitaxel in tumors, including alterations in tubulin isotype content, efflux pumps, and in vivo drug metabolism. Regardless of these factors, inhibition of microtubule dynamics, if related to the antiproliferative activity of MTPAs in vivo, should correlate with inhibition of cell proliferation. […] Thus, the inhibition of microtubule dynamics appeared to have a measurable impact on and relation to the in vivo antiproliferative action of MTPAs.

Data set [2] relates to SW1573 human lung cancer cells. Kind of data set: 2H2O stable isotope incorporation into tubulin dimers and microtubule polymers in cultured cells. Type of data set: cell-based. How it is done:
To determine whether biosynthetic labeling with ^2H2O can reveal MTPA effects on microtubule dynamics in actively proliferating cells, SW1573 human lung cancer cells were cultured and labeled during exponential growth with culture media containing 4% ^2H2O for 2, 6, 12, 24 and 36 hr, respectively. Tubulin dimer and polymer fractions were isolated from post-nuclear supernatants, and tubulin was purified from each fraction to ≧90% purity as determine by SDS-PAGE. After acid hydrolysis, amino acids were derivatized for GC/MS analysis with negative chemical ionization, and ^2H-label incorporation into the alanine derivative was quantified as the increase over natural abundance of the (M+1) mass isotopomer (“^2H—enrichment”; FIG. 3). […] The data support that in actively dividing cells, tubulin dimers and polymers are in a kinetic equilibrium on a time scale of hours. […] This indicates a substantial inhibition of ^2H—tubulin dimer flux into polymer, reflective of the ability of paclitaxel to stabilize microtubules and thus to prevent dynamic instability.

The subject of data set [3] is sciatic nerve microtubules. Kind of data set: Sciatic nerve microtubule dynamics (2H label incorporation into free tubulin and polymerized microtubules). The note with it: higher doses of paclitaxel; tumor-bearing mice (FIG. 6A).
Description: (§4) In order to evaluate neurotoxic effects of paclitaxel, the sciatic nerve was isolated from tumor-bearing mice and ^2H label incorporation into free tubulin was compared with ^2H label incorporation into polymerized microtubuies (FIG. 6). […] To explore this effect further, net changes in the abundance of unpolymerized free tubulin and microtubules was assessed by densitometric analysis (FIG. 6B).
Data set [4] deals with MCF-7 human breast cancer cells implanted into nude mice. Kind of data set: 2H label incorporation into tubulin dimers and polymers in implanted MCF-7 tumors in vivo. Here is the method:
(§3) The tumors were allowed to grow to approximately 1000 mm^3 […]; mice were then injected intraperitoneally with increasing doses of paclitaxel. ^2H2O (8%) in drinking water was administered for a 24 hr period, resulting in about 5% ^2H enrichment in body water (the balance being metabolic water). Animals were sacrificed 24 hours after drug treatment, and tumor tissue was removed for analysis of ^2H—label incorporation into tubulin dimers and polymers (FIG. 4).
Qualitatively similar effects of paclitaxel were also seen in implanted MCF-7 tumors, though the amount of ^2H—label incorporation was lower than in SW1573 tumors (FIG. 4B).

Data set [5] concerns microtubules. The note with it: fold lower than maximum tolerated therapeutic dose.
Data set [6] concerns sciatic nerve microtubules. Nature of the data set: Densitometric analysis of free tubulin and microtubule abundance in sciatic nerve. The note with it: tumor-bearing mice (FIG. 6B).
Description: as §4
Data set [7] deals with SW1573 human lung cancer cells implanted into nude mice. Kind of data set: Microtubule dynamics compared to de novo DNA synthesis (cell proliferation) in SW1573 tumors. The note with it: varying doses of paclitaxel; 2H2O for 24 hours (FIG. 5A). Type of data set: in vivo.
From the text: as §1, §2

The test system is the same in data set [8]. Nature of the data set: 2H label incorporation into tubulin dimers and polymers in implanted SW1573 tumors in vivo. How it is done: as §3
[9] abbreviates: at ≧5 mg/kg i.p., 2H2O for 24 hours (FIG. 4B).
Where [10] appears, read: at ≧5 mg/kg i.p., 2H2O for 24 hours (FIG. 4A).
[11] abbreviates: increasing doses i.p., 24 hr 2H2O (8%) in drinking water.

As to `CC(=O)O[C@H]1C(=O)[C@@]2(C)[C@H]([C@H](OC(=O)c3ccccc3)[C@]3(O)C[C@H](OC(=O)[C@H](O)[C@@H](NC(=O)c4ccccc4)c4ccccc4)C(C)=C1C3(C)C)[C@]1(OC(C)=O)CO[C@@H]1C[C@@H]2O` [paclitaxel], in data set [1], the “relation between inhibition of microtubule dynamics and inhibition of de novo DNA synthesis (tumor cell proliferation)” value is “strong relationship; also recorded: strong correlation between inhibition of microtubule dynamics and reduction in cell proliferation”. The “2H-enrichment in labeled polymers” value in data set [2] (0.4 µM paclitaxel, 4% 2H2O, 36 hours (FIG. 3B)) is listed as “reduced ^2H-enrichment in labeled polymers”. For the same molecule, in data set [2] (media containing 4% 2H2O, up to 36 hr), the “reduction of rate of 2H incorporation into polymers compared to rate of label incorporation into the dimer” value is 75%. In addition, in data set [3], the “2H label incorporation into polymers (sciatic nerve)” value was “increased the label incorporation into polymers” and the “2H labeling of free tubulin (sciatic nerve)” value is reported as “slightly decreasing labeling of free tubulin”. Further, the “paclitaxel-dependent reduction of 2H-label polymer” value in data set [4] (5 and 10 mg/kg doses, compared with SW1573 tumors) is “less pronounced, albeit statistically significant”. Further, in data set [4] (setting [9]), the “de novo synthesis of tubulin dimer” value is “increased de novo synthesis of tubulin dimer” and the “label incorporation into polymer” value was “inhibited label incorporation into polymer”. In data set [4] (increasing doses i.p., 24 hr 2H2O), the “upregulation of tubulin fractional synthesis over baseline” value was “no significant paclitaxel-induced upregulation of tubulin fractional synthesis over baseline”. Also, the “doses with significant effects on microtubule dynamics, relative to the maximum tolerated therapeutic dose” value in data set [5] is on record as “up to 30 fold”. The “amount of free tubulin dimers (sciatic nerve, densitometry)” value in data set [6] is recorded as “slight decrease in free tubulin dimers”. Besides, in data set [7], the “relation between inhibition of microtubule dynamics and inhibition of de novo DNA synthesis (tumor cell proliferation)” value is “strong relationship; also recorded: strong correlation between inhibition of microtubule dynamic instability and reduction in cell proliferation”. Further, in data set [8] (setting [10]), the “de novo synthesis of tubulin dimer” value is “increased de novo synthesis of tubulin dimer” and the “label incorporation into polymer” value is “inhibited label incorporation into polymer”. In data set [8] (setting [11]), the “fractional synthesis of tubulin dimers” value is given as “fractional synthesis of tubulin dimers increased” and the “incorporation of 2H-tubulin into microtubules” value is reported as “decreased incorporation of ^2H—tubulin into microtubules in a dose-dependent manner”.

Source of the values: patent publication US20080187937A1, “Method For Measuring Dynamics Of Self-Assembling Systems Of Biological Molecules In Vivo And Uses For Discovering Or Evaluating Therapeutic Agents” (priority 2004, published 2008).
